The values below come from patent publication US5112594A, “Kit for preparing a technetium-99m myocardial imaging agent” (Mallinckrodt Medical, Inc., priority 1991, dated 1992).

The series in a line: Biodistribution Data of Selected Tc-99m(III) Complexes in Guinea Pigs. The series is classed as in vivo. Conditions: for Heart/Blood / Heart/Liver: ratio.

For “trans-[1,2-bis[dihydro-2,2,5,5-tetramethyl-3(2H)furanone-4-methyleneamino]ethane]bis-[tris(2-(2-(1,3-dioxanyl))]ethylphosphine]technetium-99m(III) [Complex IV]”, where the note is “5 min”, the “% Heart uptake” value was found to be 0.8 % Injected dose/Organ, the Heart/Blood was found to be 5.4 and the Heart/Liver is 1.2. Under “60 min”, the “% Heart uptake” value is 0.9 % Injected dose/Organ, the Heart/Blood is 58.6 and the Heart/Liver is given as 3.0.

Take “trans-[1,2-bis[dihydro-2,2,5,5-tetramethyl-3(2H)furanone-4-methyleneamino]ethane]bis[tris(3-methoxypropyl)phosphine]technetium-99m(III) [Complex I]”: where the note is “5 min”, the “% Heart uptake” value is reported as 0.8 % Injected dose/Organ, the Heart/Blood is given as 4.6 and the Heart/Liver is 1.5. Where the note is “60 min”, the “% Heart uptake” value is reported as 0.9 % Injected dose/Organ, the Heart/Blood is 35.6 and the Heart/Liver amounted to 6.6.

As to “trans-[1,2-bis[dihydro-2,2,5,5-tetramethyl-3(2H)furanthione-4-methyleneamino]ethane]-bis[tris(3-methoxypropyl)phosphine]technetium-99m (III) [Complex III]”, under “5 min”, the “% Heart uptake” value is reported as 1.1 % Injected dose/Organ, the Heart/Blood came out at 5.9 and the Heart/Liver was determined as 0.9. Also, where the note is “60 min”, the “% Heart uptake” value was found to be 1.0 % Injected dose/Organ, the Heart/Blood worked out at 3.5 and the Heart/Liver is 1.5.

“trans-[1-[dihydro-2,2,5,5-tetramethyl-3(2H)furanthione-4-methyleneamino]-2-[dihydro-2,2,5,5-tetramethyl-3(2H)furanone-4-methyleneaminoethane]bis[tris(3-methoxypropyl)phosphine]technetium-99m(III) [Complex II]”: for the setting “5 min”, the “% Heart uptake” value is reported as 0.9 % Injected dose/Organ, the Heart/Blood stood at 6.1 and the Heart/Liver is recorded as 1.6. Further, where the note is “60 min”, the “% Heart uptake” value is given as 0.8 % Injected dose/Organ, the Heart/Blood was 26.5 and the Heart/Liver came to 5.6.
